Laboratory results published in US20110112147A1, “INDAZOLONE ANALOGS AS GLYCOGEN SYNTHASE ACTIVATORS” (priority 2009, published 2011).
pEC50: −log10 of the molar value.

Test system: glycogen synthase
Assay: Glycogen Synthase (GS) Assay
Type: biochemical
Conditions: for pEC50: compound concentration needed to give 50% maximum activation; for GS SC200: compound concentration needed to stimulate 200% of the enzyme activity
Protocol: Twelve μL per well of substrate solution containing glycogen (4.32 mg/ml), 2.67 mM UDP-glucose, 21.6 mM phospho(enol)pyruvate and 2.7 mM NADH in 30 mM glycylglycine, pH 7.3 buffer was added into a polystyrene 384-well assay plate (BD Biosciences).
Compound solutions (8 μL/well) at various concentrations (0-300 μM) were added to the assay plate (columns 5-24). Compound solution contains 30 mM glycylglycine, pH 7.3, 40 mM KCl, 20 mM MgCl2, 9.2% DMSO, with (columns 15-24) or without (columns 5-14) 20 mM glucose 6-phosphate.
Enzyme solution (12 μL/well) containing glycogen synthase (16.88 μg/ml), pyruvate kinase (0.27 mg/ml), lactate dehydrogenase (0.27 mg/ml) in 50 mM Tris-HCl, pH 8.0, 27 mM DTT and bovine serum albumin (BSA, 0.2 mg/ml) was added to the assay plate (columns 3-24). As a blank control, enzyme solution without glycogen synthase was added into the top half wells of columns 1-2. To the bottom half wells of columns 1-2 were added a known activator, glucose 6-phosphate (at final concentration 5 mM) in addition to the enzyme solution. The reaction mixture was incubated at room temperature. The assay plate was then read for absorbance at 340 nm on an Envision reader every 3 minutes up to a total of 15 minutes.
The enzyme activity (with or without compound) was calculated by the reaction rate and represented by the optical density change (δOD) per minute. Percent stimulation of glycogen synthase activity by a compound at various concentrations was calculated by the following formula: […]
wherein Rs is the reaction rate of the enzyme in the presence of compound and Rt is the reaction rate of the enzyme in the absence of compound.
SC200 is defined as the compound concentration that is needed to stimulate 200% of the enzyme activity. EC50 is defined as the compound concentration that is needed to give 50% maximum activation.

Compound	pEC50	GS SC200
COCCn1[nH]c2c(COc3ccc(-c4cc(F)c(F)cc4OC)cc3)cccc2c1=O [Example 7, 7-(4′,5′-Difluoro-2′-methoxy-biphenyl-4-yloxymethyl)-2-(2-methoxy-ethyl)-1,2-dihydro-indazol-3-one]	6.43	0.11 µM
COCCn1[nH]c2c(COc3ccc(-c4cc(F)c(F)cc4F)cc3)cccc2c1=O.Cl [Example 6, 2-(2-Methoxy-ethyl)-7-(2′,4′,5′-trifluoro-biphenyl-4-yloxymethyl)-1,2-dihydro-indazol-3-one Hydrochloride]	6.10	0.52 µM
Cc1cc(F)c(F)cc1-c1ccc(OCc2cccc3c(=O)n(CC(=O)O)[nH]c23)cc1.Cl [Example 9, [7-(4′,5′-Difluoro-2′-methyl-biphenyl-4-yloxymethyl)-3-oxo-1,3-dihydro-indazol-2-yl]acetic acid Hydrochloride]	6.38	0.33 µM
Cl.O=c1c2cccc(COc3ccc(-c4cc(F)c(F)cc4F)cc3)c2[nH]n1-c1cccnc1 [Example 13, 2-Pyridin-3-yl-7-(2′,4′,5′-trifluoro-biphenyl-4-yloxymethyl)-1,2-dihydro-indazol-3-one Hydrochloride]	5.40	2.75 µM
COc1cc(F)c(F)cc1-c1ccc(OCc2cccc3c(=O)n(C)[nH]c23)cc1 [Example 3, 7-(4′,5′-Difluoro-2′-methoxy-biphenyl-4-yloxymethyl)-2-methyl-1,2-dihydro-indazol-3-one]	6.48	0.04 µM
Cc1cc(F)c(F)cc1-c1ccc(OCc2cccc3c(=O)n(-c4ccc(F)cc4)[nH]c23)cc1 [Example 10, 7-(4′,5′-Difluoro-2′-methyl-biphenyl-4-yloxymethyl)-2-(4-fluoro-phenyl)-1,2-dihydro-indazol-3-one]	5.83	1.86 µM
Cn1[nH]c2c(COc3ccc(-c4cc(F)c(F)cc4F)cc3)cccc2c1=O [Example 2, 2-Methyl-7-(2′,4′,5′-trifluoro-biphenyl-4-yloxymethyl)-1,2-dihydro-indazol-3-one]	5.75	0.49 µM
O=C(O)Cn1[nH]c2c(COc3ccc(-c4cc(F)c(F)cc4F)cc3)cccc2c1=O [Example 4, [3-oxo-7-(2′,4′,5′-trifluoro-biphenyl-4-yloxymethyl)-1,3-dihydro-indazol-2-yl]-acetic acid]	5.92	0.69 µM
COc1cc(F)c(F)cc1-c1ccc(OCc2cccc3c(=O)n(-c4ccc(F)cc4)[nH]c23)cc1 [Example 11, 7-(4′,5′-Difluoro-2′-methoxy-biphenyl-4-yloxymethyl)-2-(4-fluoro-phenyl)-1,2-dihydro-indazol-3-one]	5.86	2.01 µM
O=c1c2cccc(COc3ccc(-c4cc(F)c(F)cc4F)cc3)c2[nH]n1CCO [Example 8, 2-(2-Hydroxy-ethyl)-7-(2′,4′,5′-trifluoro-biphenyl-4-yloxymethyl)-1,2-dihydro-indazol-3-one]	6.11	0.22 µM
COc1cc(F)c(F)cc1-c1ccc(OCc2cccc3c(=O)n(CC(=O)O)[nH]c23)cc1 [Example 5, [7-(4′,5′-Difluoro-2′-methoxy-biphenyl-4-yloxymethyl)-3-oxo-1,3-dihydro-indazol-2-yl]-acetic acid]	6.70	0.06 µM
Cc1cc(F)c(F)cc1-c1ccc(OCc2cccc3c(=O)n(C)[nH]c23)cc1 [Example 1, 7-(4′,5′-Difluoro-2′-methyl-biphenyl-4-yloxymethyl)-2-methyl-1,2-dihydro-indazol-3-one]	6.62	0.13 µM
O=c1c2cccc(COc3ccc(-c4cc(F)c(F)cc4Cl)cc3)c2[nH]n1-c1cccnc1 [Example 14, 7-(4′,5′-Difluoro-2′-chloro-biphenyl-4-yloxymethyl)-2-pyridin-3-yl-1,2-dihydro-indazol-3-one]	5.73	1.14 µM
COc1cc(F)c(F)cc1-c1ccc(OCc2cccc3c(=O)n(-c4cccnc4)[nH]c23)cc1 [Example 12, 7-(4′,5′-Difluoro-2′-methoxy-biphenyl-4-yloxymethyl)-2-pyridin-3-yl-1,2-dihydro-indazol-3-one]	6.11	0.60 µM

More lines, main results first:

pEC50	Compound	GS SC200
6.52	O=c1c2cccc(COc3ccc(-c4cc(F)c(F)cc4Cl)cc3)c2[nH]n1C[C@H](O)CO [Example 22, 7-(2′-Chloro-4′,5′-difluoro-biphenyl-4-yloxymethyl)-2-((S)-2,3-dihydroxy-propyl)-1,2-dihydro-indazol-3-one]	0.16 µM
6.17	O=c1c2cccc(COc3ccc(-c4cc(F)c(F)cc4F)cc3)c2[nH]n1C[C@@H](O)CO [Example 15, 2-((R)-2,3-Dihydroxy-propyl)-7-(2′,4′,5′-trifluoro-biphenyl-4-yloxymethyl)-1,2-dihydro-indazol-3-one]	0.32 µM
6.24	O=c1c2cccc(COc3ccc(-c4cc(F)c(F)cc4F)cc3)c2[nH]n1C[C@H](O)CO [Example 16, 2-((S)-2,3-Dihydroxy-propyl)-7-(2′,4′,5′-trifluoro-biphenyl-4-yloxymethyl)-1,2-dihydro-indazol-3-one]	0.41 µM
6.47	Cc1cc(F)c(F)cc1-c1ccc(OCc2cccc3c(=O)n(C[C@H](O)CO)[nH]c23)cc1 [Example 20, 7-(4′,5′-Difluoro-2′-methyl-biphenyl-4-yloxymethyl)-2-((S)-2,3-dihydroxy-propyl)-1,2-dihydro-indazol-3-one]	0.11 µM
6.60	COc1cc(F)c(F)cc1-c1ccc(OCc2cccc3c(=O)n(C[C@H](O)CO)[nH]c23)cc1 [Example 18, 7-(4′,5′-Difluoro-2′-methoxy-biphenyl-4-yloxymethyl)-2-((S)-2,3-dihydroxy-propyl)-1,2-dihydro-indazol-3-one]	0.07 µM
6.59	O=c1c2cccc(COc3ccc(-c4cc(F)c(F)cc4Cl)cc3)c2[nH]n1C[C@@H](O)CO [Example 21, 7-(2′-Chloro-4′,5′-difluoro-biphenyl-4-yloxymethyl)-2-((R)-2,3-dihydroxy-propyl)-1,2-dihydro-indazol-3-one]	0.25 µM
6.64	Cc1cc(F)c(F)cc1-c1ccc(OCc2cccc3c(=O)n(C[C@@H](O)CO)[nH]c23)cc1 [Example 19, 7-(4′,5′-Difluoro-2′-methyl-biphenyl-4-yloxymethyl)-2-((R)-2,3-dihydroxy-propyl)-1,2-dihydro-indazol-3-one]	0.10 µM
6.57	COc1cc(F)c(F)cc1-c1ccc(OCc2cccc3c(=O)n(C[C@@H](O)CO)[nH]c23)cc1 [Example 17, 7-(4′,5′-Difluoro-2′-methoxy-biphenyl-4-yloxymethyl)-2-((R)-2,3-dihydroxy-propyl)-1,2-dihydro-indazol-3-one]	0.06 µM
